Reference: paper PMC4471902, “Block of NMDA receptor channels by endogenous neurosteroids: implications for the agonist induced conformational states of the channel vestibule” (Scientific Reports, 2015)
“And” between values parts separate entries of the source, which are not always exact repeats. Equal values may be shown once. Where a name gives a salt, the structure may show the parent alone.

Key:
GluN1ΔC/GluN2BΔC = target: T1, GluN1ΔC/GluN2BΔC (Rattus norvegicus, UniProt P35439+Q00960); test: Whole-cell patch-clamp of C-terminal truncated NMDARs in HEK293 cells; assay type: cell-based
T1 construct: expressed in transfected cells; host or cells: HEK293
From the text: (§1) Human embryonic kidney (HEK293) cells were transfected with expression vectors containing: GluN1–1a (GenBank accession number U08261)[52]; GluN2B (GenBank accession number M91562); GluN1-4a(F484A), (generous gift from Dr. J. J. Woodward)[53] (Smothers & Woodward, 2009); GluN3A (generous gift from Dr. S. A. Lipton)[54] (GenBank accession number NM_138546); GluN1ΔN with deleted 354 amino acids in the NTD (32 to 386); GluN1ΔC with an introduced stop codon in 838 of the CTD GluN2BΔN) with deleted 354 amino acids in the NTD (32 to 386); GluN2BΔC with an introduced stop codon in 844 of the CTD[55]; GluR0 (GenBank accession number Synechocystis PCC 6803) (generous gift from Dr. M. L. Mayer)[18]; and green fluorescent protein (GFP) (pQBI 25, Takara, Tokyo, Japan) genes, as described previously. The Quick-Change site-directed mutagenesis kit (Agilent Technologies, Santa Clara, CA, USA) was used to generate specific point mutations in the M1/M3 region according to the manufacturer’s instructions using manually designed primers purchased from Sigma. Modified DNA plasmids were transformed into competent XL10-Gold E.coli cells, positive clones were selected, and isolated DNA was sequenced. […]
(§2) The IC50 was determined from a single dose of a steroid using the formula [drawing 1] where I is the relative degree of inhibition and [steroid] is the steroid concentration used. […]

[1] = Light scattering analysis of particle size in ECS; assay type: physicochemical
Method: Light scattering (Zetasizer Nano ZS, Malvern Instruments, United Kingdom) was used to characterize particle size of PA-S in ECS. PA-S was dissolved in DMSO at a concentration of 20 mM and then in the ECS at a final concentration of 5 nM to 150 μM PA-S. This solution was sonicated (Ultrasonic Sonorex Super RK 103 H, Bandelin electronic GmbH & Co. KG, Germany) for 1 min. Light scattering analysis was repeated six times for each sample at 25 °C.

[2] = target: T2, GluN1-4a(F484A)/eGFP-GluN3A receptor (Rattus norvegicus, UniProt P35439+Q9R1M7, F484A); test: Whole-cell patch-clamp of glycine-activated GluN1-4a(F484A)/eGFP-GluN3A receptor responses in HEK293 cells; assay type: cell-based
T2 construct: eGFP; expressed in transfected cells; host or cells: HEK293
From the text: as §1, §2

GluN1ΔN/GluN2BΔN = target: T3, GluN1ΔN/GluN2BΔN (Rattus norvegicus, UniProt P35439+Q00960, DEL32-386); test: Whole-cell patch-clamp of N-terminal truncated NMDARs in HEK293 cells; assay type: cell-based; settings: 1 mM glutamate, PA-S 50 µM
T3 construct: expressed in transfected cells; host or cells: HEK293
From the text: as §1, §2

GluN1/GluN2B receptors = target: T4, GluN1/GluN2B receptors (Rattus norvegicus, UniProt P35439+Q00960); test: Whole-cell patch-clamp of GluN1/GluN2B receptor responses in transfected HEK293 cells; assay type: cell-based
T4 construct: expressed in transfected cells; host or cells: HEK293
From the text: Human embryonic kidney (HEK293) cells were transfected with expression vectors containing: GluN1–1a (GenBank accession number U08261)[52]; GluN2B (GenBank accession number M91562); GluN1-4a(F484A), (generous gift from Dr. J. J. Woodward)[53] (Smothers & Woodward, 2009); GluN3A (generous gift from Dr. S. A. Lipton)[54] (GenBank accession number NM_138546); GluN1ΔN with deleted 354 amino acids in the NTD (32 to 386); GluN1ΔC with an introduced stop codon in 838 of the CTD GluN2BΔN) with deleted 354 amino acids in the NTD (32 to 386); GluN2BΔC with an introduced stop codon in 844 of the CTD[55]; GluR0 (GenBank accession number Synechocystis PCC 6803) (generous gift from Dr. M. L. Mayer)[18]; and green fluorescent protein (GFP) (pQBI 25, Takara, Tokyo, Japan) genes, as described previously. The Quick-Change site-directed mutagenesis kit (Agilent Technologies, Santa Clara, CA, USA) was used to generate specific point mutations in the M1/M3 region according to the manufacturer’s instructions using manually designed primers purchased from Sigma. Modified DNA plasmids were transformed into competent XL10-Gold E.coli cells, positive clones were selected, and isolated DNA was sequenced. […] All mutations were verified by DNA sequencing (Macrogen, Seoul, Korea or SeQme, Dobris, Czech Republic). The amino acids are numbered according to the full-length protein, including the signal peptide, with the initiating methionine as 1.
Experiments were performed 24–48 hrs after transfection on cells transfected with GluN1/GluN2B/GFP plasmids. Whole-cell voltage-clamp recordings from HEK293 cells were made with a patch-clamp amplifier (Axopatch 200B; Axon Instruments, Inc., Foster City, CA) after a capacitance and series resistance (<10 MΩ) compensation of 80–90%.
Patch pipettes (3–5 MΩ) were filled with a solution containing (in mM): 120 gluconic acid, 15 CsCl, 10 BAPTA, 10 HEPES, 3 MgCl2, 1 CaCl2, and 2 ATP-Mg salt (pH-adjusted to 7.2 with CsOH). When GluR0 receptor responses were studied, intracellular solution contained (in mM): 120 gluconic acid, 15 KCl, 10 BAPTA, 10 HEPES, 3 MgCl2, 1 CaCl2, and 2 ATP-Mg salt (pH-adjusted to 7.2 with KOH). Extracellular solution (ECS) contained the following (in mM): 160 NaCl, 2.5 KCl, 10 HEPES, 10 glucose, 0.2 EDTA, and 0.7 CaCl2 (pH-adjusted to 7.3 with NaOH). Glycine (10 μM), an NMDAR co-agonist, was present in the control and test solutions. All (PA-S and PA-A) solutions were made from freshly prepared 20 mM PA-S and 5 mM PA-A stock in dimethyl sulfoxide (DMSO). The final dilution to ECS was made at 50 °C and followed by 1 min sonication (SONOREX DIGITEC DT 100/H, BADELIN electronic, Berlin, Germany). The same concentration of DMSO was added to all extracellular solutions. Drug applications were made with a microprocessor-controlled multibarrel fast-perfusion system. Changes in the glutamate-induced current in HEK293 cells transfected by GluN1/GluN2B subunits were used to estimate the rate of solution exchange around the cell. Standard ECS was switched to the ECS diluted by water (50%) during glutamate application. The osmolarity was adjusted by sucrose to match the standard ECS. Glutamate (1 mM), glycine (10 μM) and pH was maintained constant in both solutions. The solution exchange rate was estimated to be τ = 4.3 ± 0.3 ms (n = 6) for lifted cells and τ = 12.0 ± 0.9 ms (n = 6) for the attached cells.
Experiments were performed at room temperature (21–25 °C). Data were collected (low-pass filtered at 2 kHz and sampled at 10 kHz) and analyzed using pClamp 10 (Molecular Devices). Unless otherwise mentioned, error bars represent SEM; statistical comparison of groups was performed using Student’s t-test (p < 0.05 was used to determine the significance).
as §2

[3] = 150 μM PA-S co-applied with 1 mM glutamate, 10 μM glycine, attached HEK293 cells
[4] = lifted HEK293 cells, 150 μM PA-S co-application with glutamate
[5] = lifted HEK293 cells, 150 μM PA-S wash

T2 sequence (Q9R1M7 24-1135, other chains not shown): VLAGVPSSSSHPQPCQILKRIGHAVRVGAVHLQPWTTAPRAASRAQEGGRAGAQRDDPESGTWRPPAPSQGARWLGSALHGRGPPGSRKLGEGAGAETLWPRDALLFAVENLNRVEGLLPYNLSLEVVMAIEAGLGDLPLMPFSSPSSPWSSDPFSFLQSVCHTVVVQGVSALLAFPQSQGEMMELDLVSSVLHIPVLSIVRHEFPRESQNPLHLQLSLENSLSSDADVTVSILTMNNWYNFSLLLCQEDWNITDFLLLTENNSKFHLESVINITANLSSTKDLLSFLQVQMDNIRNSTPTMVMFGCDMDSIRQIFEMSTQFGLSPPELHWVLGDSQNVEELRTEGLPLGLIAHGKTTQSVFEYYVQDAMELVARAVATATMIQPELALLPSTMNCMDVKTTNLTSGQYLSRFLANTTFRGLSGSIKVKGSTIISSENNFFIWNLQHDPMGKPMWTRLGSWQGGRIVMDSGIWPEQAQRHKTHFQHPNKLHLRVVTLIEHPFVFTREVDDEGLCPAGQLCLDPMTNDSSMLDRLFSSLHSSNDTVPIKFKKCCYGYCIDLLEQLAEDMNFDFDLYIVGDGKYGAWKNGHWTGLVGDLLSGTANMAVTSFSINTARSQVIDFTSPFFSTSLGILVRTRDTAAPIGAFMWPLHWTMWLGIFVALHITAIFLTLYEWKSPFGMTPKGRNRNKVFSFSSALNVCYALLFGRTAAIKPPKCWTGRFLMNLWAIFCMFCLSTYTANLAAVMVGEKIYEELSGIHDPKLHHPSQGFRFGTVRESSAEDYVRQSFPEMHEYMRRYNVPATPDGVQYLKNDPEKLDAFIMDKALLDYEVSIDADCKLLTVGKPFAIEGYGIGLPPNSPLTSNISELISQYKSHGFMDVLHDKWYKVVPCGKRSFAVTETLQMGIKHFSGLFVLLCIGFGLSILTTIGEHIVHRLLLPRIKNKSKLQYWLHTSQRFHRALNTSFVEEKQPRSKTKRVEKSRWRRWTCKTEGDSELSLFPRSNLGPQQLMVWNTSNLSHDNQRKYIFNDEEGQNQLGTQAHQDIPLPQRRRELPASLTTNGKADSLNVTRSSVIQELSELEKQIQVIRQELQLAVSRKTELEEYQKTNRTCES

SMILES: CC(=O)[C@H]1CC[C@H]2[C@@H]3CC[C@@H]4C[C@H](OS(=O)(=O)O)CC[C@]4(C)[C@H]3CC[C@]12C [PA-S, 20-oxo-5β-pregnan-3α-yl sulfate]
- IC50 (GluN1ΔC/GluN2BΔC): 34 ± 3 µM
- PA-S concentration at which two particle sizes are present ([1]; ECS): > 300 nM
- PA-S concentration at which two particle sizes were observed ([1]; ECS): ≥ 0.4 µM
- small particle size (single steroid molecule) ([1]; ECS): ~ 2.5 nm
- critical aggregate concentration (CAC) ([1]; ECS, 25 °C): ~ 300 nM and 300 nM
- size of aggregates ([1]; ECS, concentrations relevant to effect at the NMDAR): ~ 400 nm
- molecules present in the ECS in aggregates ([1]; at the PA-S concentration corresponding to its IC50 at NMDARs): 99.5%
- degree of PA-S inhibition, mutated vs WT GluN1-4a subunit in combination with GluN3A [2]: no significant difference
- IC50 ([2]; glycine-activated, PA-S 50 µM): 27 ± 3 µM
- IC50 (GluN1ΔN/GluN2BΔN): 41 ± 2 µM
- onset of response to glycine Af (GluN1/GluN2B receptors): 84 ± 5%
- onset of response to glycine τf (GluN1/GluN2B receptors): 29 ± 3 ms
- onset of response to glycine τs (GluN1/GluN2B receptors): 280 ± 72 ms
- onset of inhibition Af (GluN1/GluN2B receptors; [3]): 75 ± 3%
- onset of inhibition τf (GluN1/GluN2B receptors; [3]): 30 ± 2 ms
- onset of inhibition τs (GluN1/GluN2B receptors; [3]): 579 ± 92 ms
- recovery from inhibition (offset) τs (GluN1/GluN2B receptors; 150 μM PA-S, 1 mM glutamate, 10 μM glycine, attached HEK293 cells): 536 ± 79 ms
- intercept of linear fit of mean inhibition versus holding potential (GluN1/GluN2B receptors; PA-S 200 µM, 1 mM glutamate, WT): 85.2
- voltage dependence of steroid inhibition (GluN1/GluN2B receptors; WT GluN1/GluN2B): voltage independent
- mode of inhibition (GluN1/GluN2B receptors; dependence on receptor activation by agonists): use-dependent
- time constant of the slow rate of recovery from inhibition (GluN1/GluN2B receptors; glutamate and steroid co-application for 30 s): 902 ± 201 ms
- onset of the response to glutamate application (10–90%) (GluN1/GluN2B receptors; immediately after 30 s PA-S (150 μM) pre-application in the absence of glutamate): 18.4 ± 1.6 ms
- onset of inhibition As (GluN1/GluN2B receptors; [4]): 20 ± 4%
- onset of inhibition τf (GluN1/GluN2B receptors; [4]): 10.8 ± 2.2 ms
- onset of inhibition τs (GluN1/GluN2B receptors; [4]): 480 ± 108 ms
- off rate As (GluN1/GluN2B receptors; [5]): 65% and 41 ± 6%
- off rate τf (GluN1/GluN2B receptors; [5]): 16 ms and 14.3 ± 1.7 ms
- off rate τs (GluN1/GluN2B receptors; [5]): 367 ms and 311 ± 70 ms
